{"source": "patent US8017828B2", "about": "“Utilization of rare sugars in plant or microorganism” (Shikoku Research Institute Incorporated, priority 2004, dated 2011)", "key": {"[1]": {"tested_on": "seeds of vegetables, ornamental plants, herbs, fruit trees, grains and feed crops", "assay": "Seed germination, continuous treatment (Experiment 1)", "format": "in vivo", "description": "Seeds of vegetables (11 families and 51 species or varieties); ornamental plants (19 families and 47 species or varieties); […] (4 families and 14 species or varieties); fruit trees (3 families and 3 species or varieties); grains (1 family and 3 species or varieties); and feed crops (1 family and 3 species or varieties) were continuously treated with any of 4 types of solutions of deionized water (control), 1% D-fructose, 1% D-psicose and 0.5% D-fructose+0.5% D-psicose and germinated under the condition of 25° C., 35 μmol·m^−2·s^−1, and 16-hour lighting or 16-hour dark. As for the number of seeds, 50 seeds were used for each solution basically, and when the number of seeds was small, the seeds were distributed in such a manner that the number of seeds for each solution became equal. The seeds were sown in a dish with a diameter of 9 cm having a filter paper placed therein or when the seeds were large, they were sown in a styrol container with a diameter of 10 cm and a height of 45 mm. Then, 10 ml or 50 ml of any of the solutions was poured therein, and deionized water was suitably added depending on the transpiration."}, "[2]": {"tested_on": "stress/hormone response genes", "format": "in vivo, Lotus japonicus", "conditions": "for activation of gene group that responds to pathogenic bacteria and environmental stresses: 5 mM in medium, first one week", "procedure": "A pattern of induction of a gene in the case where D-psicose was added to a medium for Lotus japonicus was examined by an experiment using a cDNA array.\nLotus japonicus was germinated from a seed and cultivated in an L&B medium (hydroponic culture medium). When the seed was germinated, Mesorhizobium loti was also inoculated. This condition was applied to both a control plot and a plot of D-psicose addition. With regard to the array, a microarray on which 14,000 clones were immobilized by using a Lotus japonicus cDNA array was used. After test plants were germinated, they were cultivated with an L&B medium supplemented with D-psicose or without addition for 1 week in a growth cabinet (22° C., 30,000 Lux). After total RNA was extracted from the plant body, it was labeled with ^33P in the process where it was converted to cDNA, and then hybridization was carried out. Reading was carried out using STORM 850 and analysis was carried out with Array Vision."}, "Primula": {"tested_on": "Primula", "assay": "Drying stress of Primula after foliar spraying", "format": "in vivo", "conditions": "foliar spraying of 0.2% (w/v) solution", "procedure": "By using Primula, an effect of spraying D-psicose on a drying stress was examined. By using commercially available Primula planted in a pot, foliar spraying of water, a 0.2% (w/v) D-glucose solution or a 0.2% (w/v) D-psicose solution was carried out on the whole plant. After irrigation was sufficiently carried out from the lower part of the pot, the plant was left in a condition that no irrigation was carried out, and a wilted condition thereof was observed."}, "Vitis kiusiana Momiyama": {"tested_on": "Vitis kiusiana Momiyama", "assay": "Bud flush of dormant branch cuttings of wild grape", "format": "in vivo", "procedure": "Matured branches of a Japanese wild grape Vitis kiusiana Momiyama, in which rooting of cuttings is difficult (Mochioka et al., Plant Tissue Culture 13: 139-145, 1996; Journal of ASEV JAPAN 13: 2-8, 2002) and dormancy of buds is deep (Mochioka et al., Journal of Japanese Society for Horticultural Science, 65: 49-54, 1996) were collected in January during the dormant stage, and stored under refrigeration in such a manner that they were not dried. On March 11, they were prepared to have one bud. After each cutting base was immersed in a 3% aqueous solution of D-psicose (supplemented with a spreading agent, Approach BI at 0.2%) for 24 hours, on the following day March 12, it was planted in a Vermiculite bed and placed in a temperature-controlled chamber at 25° C. and 16-hour day length, and the bud flush rate with time was measured. The timing of bud flush was determined to be a time when bud scale leaves fall off and about 50% of the tomentum that protects the bud appears. In a control plot, the cutting base was immersed in distilled water supplemented with 0.2% Approach BI for 24 hours, and then, subjected to the same treatment as described above.\nIn the survey of the bud flush rate, 9 cuttings were used for each plot and the procedure was repeated three times and an average was obtained."}, "[3]": {"tested_on": "eggplant plant (variety: “Senryo NiGo”)", "assay": "Spraying of sugar solution during eggplant cultivation", "format": "in vivo", "conditions": "0.2% (w/v) sprayed weekly", "procedure": "In the process of cultivation of eggplant, an effect of spraying D-psicose was examined.\nAn eggplant plant (variety: “Senryo NiGo”) was used in an experiment. Eggplant seedlings were transplanted for permanent planting to No. 7 unglazed pots filled with “Hana to Yasai no Tsuchi (garden soil for flowers and vegetables)” and a cultivation test was carried out in a vinyl house equipped with a heating device. As a fertilizer, 4 granules of IB compound fertilizer per pot were given around the roots, and irrigation was carried out by automatically feeding 500 ml of water twice a day. During the cultivation, on a weekly basis, water, a 0.2% (w/v) D-glucose solution or a 0.2 (w/v) D-psicose solution was sprayed onto the whole plant. As for the number of eggplant plants, 10 plants were used for each group, and the cultivation was carried out twice, i.e., in summer (from May 14 to Jul. 15, 2004) and in winter (from Nov. 4, 2004 to Feb. 24, 2005). A survey was carried out with regard to the growth conditions during the cultivation and yield of fruits."}, "lipoxygenase gene": {"tested_on": "lipoxygenase gene", "assay": "Northern blotting of lipoxygenase gene expression in sprayed cut leaves of rough lemon", "format": "in vivo", "conditions": "0.5 mM sprayed on cut leaves, 2 to 48 hours", "procedure": "Cut leaves of rough lemon were treated by spraying each of 0.5 mM L-psicose, L- & D-tagatose and D-sorbose thereon and were let stand for 2, 4, 6, 12, 24 and 48 hours at 24° C. under the dark condition in a moist chamber. Then, from the treated leaves, total RNA was extracted and the expression of genes of lipoxygenase and chitinase was analyzed by Northern blotting. The assays and analyses were repeated at least 3 times in all the treated plots, and equivalent results were obtained."}, "[4]": {"tested_on": "PBZ1, chitinase gene (PCG3), PAL gene", "assay": "Northern blot of genes related to resistance in rice after D-psicose treatment", "format": "in vivo", "procedure": "A seedling of a rice plant (variety: Nihonbare, see FIG. 10, the middle of the photograph, the white bar: 5 mm) at day 5 after sowing was used for an experiment. The rice seedling was raised by hydroponic culture in a pot using Kimura B solution. The Kimura B solution was supplemented with D-psicose at each concentration. While the solution was replaced with the same solution every 5 days, cultivation was carried out for 10 days. Thereafter, the seedling was transplanted to a pot filled with soil, and then, cultivation was carried out with natural light in a glass chamber for 7 days. Then, total RNA was extracted and a Northern blot analysis was carried out."}, "[5]": {"conditions": "1% continuous, 41 species listed"}, "[6]": {"conditions": "0.5 mM for 10 days, 1 week after transplanting"}}}
{"smiles": "O=C(CO)[C@@H](O)[C@H](O)[C@H](O)CO", "note": "[D-fructose, reference compound]", "values": [{"measurement": "effect on inhibition of germination by D-psicose", "setting": "[1]; 0.5% D-fructose+0.5% D-psicose, 32 species listed", "result": "Mitigated"}, {"measurement": "germination", "setting": "[1]; [5]", "result": "Inhibited"}, {"measurement": "germination", "setting": "[1]; 1% continuous, Lemon Balm and Green Pea (2 species)", "result": "Promoted"}, {"measurement": "activation of gene group that responds to pathogenic bacteria and environmental stresses", "setting": "[2]", "result": "not observed"}]}
{"smiles": "O=C[C@H](O)[C@@H](O)[C@H](O)[C@H](O)CO", "note": "[D-glucose, reference compound]", "values": [{"measurement": "time until wilt of the whole plant without irrigation", "setting": "Primula", "result": "one day"}]}
{"smiles": "O=C(CO)[C@H](O)[C@H](O)[C@H](O)CO", "note": "[D-psicose]", "values": [{"measurement": "bud flush rate compared with control plot", "setting": "Vitis kiusiana Momiyama; 3% aqueous solution 24 hours, whole period", "result": "higher"}, {"measurement": "timing of bud flush", "setting": "Vitis kiusiana Momiyama; cutting base immersed in 3% aqueous solution 24 hours, control mid-April", "result": "from late March"}, {"measurement": "significant effect of spraying on cultivation", "setting": "[3]; summer", "result": "not observed"}, {"measurement": "growth (aerial part weight and underground part weight)", "setting": "[3]; winter", "result": "promotion of the growth"}, {"measurement": "yield of fruits", "setting": "[3]; winter", "result": "increase"}, {"measurement": "germination", "setting": "[1]; 1% continuous, 32 species listed", "result": "Inhibition of Germination"}, {"measurement": "germination", "setting": "[1]; [5]", "result": "Inhibited"}, {"measurement": "elongation of roots", "setting": "[1]; 1% continuous, Diospyros kaki", "result": "inhibited"}, {"measurement": "germination", "setting": "[1]; 1% continuous, Myosotis scorpioides and Chinese lantern plant (2 species)", "result": "Significantly Inhibited"}, {"measurement": "germination", "setting": "[1]; 1% continuous, Salsola komarovii, Diospyros kaki, Clarkia amoena (3 species)", "result": "Not Affected or was Promoted Slightly"}, {"measurement": "germination", "setting": "[1]; many plants in the Brassica family", "result": "inhibited"}, {"measurement": "induction of the expression of lipoxygenase gene, persistency", "setting": "lipoxygenase gene", "result": "maintained for the longest time"}, {"measurement": "time until wilt of the whole plant without irrigation", "setting": "Primula", "result": 2, "unit": "days"}, {"measurement": "activation of gene group that responds to pathogenic bacteria and environmental stresses", "setting": "[2]", "result": "activated"}, {"measurement": "expression of a gene group regulated by plant hormones such as auxin", "setting": "[2]; about 0.1 mM in medium", "result": "an increase or a decrease in the expression"}, {"measurement": "Expression ratio (D-psicose/water): auxin response factor 6 (ARF6)", "setting": "[2]; psicose: 0.1 mM, 1 week", "result": 2.5}, {"measurement": "Expression ratio (D-psicose/water): auxin-binding protein T85 precursor (ABP)", "setting": "[2]; psicose: 0.1 mM, 1 week", "result": 2.4}, {"measurement": "Expression ratio (D-psicose/water): chitinase", "setting": "[2]; psicose: 0.1 mM, 1 week", "result": 2.2}, {"measurement": "Expression ratio (D-psicose/water): chitinase (EC 3.2.1.14) class II", "setting": "[2]; psicose: 0.1 mM, 1 week", "result": 2.2}, {"measurement": "Expression ratio (D-psicose/water): glycine-rich RNA-binding, abscisic acid-inducible protein", "setting": "[2]; psicose: 0.1 mM, 1 week", "result": 2.5}, {"measurement": "Expression ratio (D-psicose/water): metal stress-regulated protein SR7", "setting": "[2]; psicose: 0.1 mM, 1 week", "result": 2.4}, {"measurement": "Expression ratio (D-psicose/water): pathogen-inducible alpha-dioxygenase", "setting": "[2]; psicose: 0.1 mM, 1 week", "result": 2.4}, {"measurement": "Expression ratio (D-psicose/water): putative WD-40 repeat protein", "setting": "[2]; psicose: 0.1 mM, 1 week", "result": 2.2}, {"measurement": "Expression ratio (D-psicose/water): turgor-responsive protein 26G", "setting": "[2]; psicose: 0.1 mM, 1 week", "result": 2.3}, {"measurement": "Expression ratio (D-psicose/water): ACC oxidase", "setting": "[2]; psicose: 5 mM, 1 week", "result": 5.1}, {"measurement": "Expression ratio (D-psicose/water): PDR5-like ABC transporter", "setting": "[2]; psicose: 5 mM, 1 week", "result": 10.8}, {"measurement": "Expression ratio (D-psicose/water): PR-10-1 protein", "setting": "[2]; psicose: 5 mM, 1 week", "result": 5.5}, {"measurement": "Expression ratio (D-psicose/water): auxin response factor like protein", "setting": "[2]; psicose: 5 mM, 1 week", "result": 5.6}, {"measurement": "Expression ratio (D-psicose/water): chalcone synthase", "setting": "[2]; psicose: 5 mM, 1 week", "result": 5.4}, {"measurement": "Expression ratio (D-psicose/water): class I chitinase", "setting": "[2]; psicose: 5 mM, 1 week", "result": 13.2}, {"measurement": "expression of genes related to rice disease resistance in leaves", "setting": "[4]; 0.5 mM 10 days, then one week in soil without D-psicose", "result": "induction"}, {"measurement": "induction of PBZ1", "setting": "[4]; [6]", "result": "strongly observed"}, {"measurement": "induction of chitinase gene (PCG3)", "setting": "[4]; [6]", "result": "strongly observed"}, {"measurement": "effect on PAL gene", "setting": "[4]; constantly expressed gene", "result": "no effect"}, {"measurement": "expression of PBZ1 and chitinase gene (PCG3)", "setting": "[4]; treated plots of from 0.0005 to 0.1 mM", "result": "not expressed"}]}
